Counter-ions that a name gives are not always drawn. Like-named read-outs stand apart in the source and are kept apart here.
Assays:
[1] = test system: dystrophin deficient cardiomyocytes; experiment: High-throughput hypotonic stress cell viability (intracellular ATP) screen; conditions: for Average of % viability: 384-well, 18 hours compound incubation, then 30 minutes at 12.5% normal osmolarity, CELLTITER-GLO, vs average of DMSO control wells, tested at 10^-8 to 10^-5 M, concentration not given; for Z score / Effect on viability in hypotonic stress screen (in words): primary screen; for Z score: data points ranked by Z score; for Effect on viability in hypotonic stress screen (in words): dose-response, FIG. 8
[2] = test system: dystrophin deficient cardiomyocytes
[3] = test system: dystrophin locus; experiment: SURVEYOR assay of guide RNA targeting efficiency in HEK293T cells; format: cell-based, human; conditions: FIG. 9A
Excerpt: (THERMO […], Waltham, Mass.) using primer set […] ID NO:3) and […] ID NO:4).

Compound | Average of % viability [1] [%] | Z score [1] | Average of % viability [2] [%] | Effect on viability in hypotonic stress screen (in words) [1] | cutting efficiency [3] [%]
COc1ncnc(NS(=O)(=O)c2ccc(N)cc2)c1OC [SULFADOXINE] | 195.32 ± 23.52 | 4.59 | – | – | –
CCCN(CCC)C(=O)C(CCC(=O)O)NC(=O)c1ccccc1 (centres unmarked) [PROGLUMIDE] | 175.69 ± 50.35 | 3.71 | – | – | –
COc1ccc2cc([C@H](C)CO)ccc2c1 [NAPROXOL] | 168.76 ± 2.61 | 3.39 | – | – | –
NC(=O)c1ccc([N+](=O)[O-])cc1Cl [AKLOMIDE] | 276.60 ± 12.37 | 8.26 | – | – | –
CCCCC1C(=O)N(c2ccccc2)N(c2ccc(O)cc2)C1=O (centres unmarked) [OXYPHENBUTAZONE] | – | 3.76 | 176.96 ± 42.53 | – | –
O=C1O[C@H]([C@@H](O)CO)C(O)=C1O [ASCORBIC ACID] | 181.48 ± 23.68 | – | – | – | –
CN1CCc2c(c3ccccc3n2Cc2ccccc2)C1.CN1CCc2c(c3ccccc3n2Cc2ccccc2)C1.O=S(=O)(O)c1cccc2c(S(=O)(=O)O)cccc12 [MEBHYDROLIN NAPHTHALENE SULFONATE] | – | 3.58 | – | – | –
COc1ccc(C[C@H](N)C(=O)N[C@H]2[C@@H](O)[C@H](n3cnc4c(N(C)C)ncnc43)O[C@@H]2CO)cc1 [PUROMYCIN HYDROCHLORIDE] | 187.84 ± 39.68 | 4.25 | – | – | –
C[C@@]12C(=O)OC(=O)[C@]1(C)[C@H]1CC[C@@H]2O1 [CANTHARIDIN] | 239.59 ± 14.65 | 6.59 | – | – | –
CC=CC(=O)N(CC)c1ccccc1C [CROTAMITON] | 178.25 ± 27.22 | 3.82 | – | – | –
Cn1c(=O)c2c(ncn2C)n(C)c1=O [Caffeine] | – | – | – | demonstrated the opposite effect | –
gRNA 4: guide sequence GCTTTGGTGGGAAGAAGTAGAGG (SEQ ID NO: 8) targeting first muscle exon of human dystrophin (listed as DNA, chemistry not fully specified) | – | – | – | – | 44.3
COc1cc([C@@H]2c3cc4c(cc3[C@H](O)[C@H]3COC(=O)[C@H]23)OCO4)cc(OC)c1OC [PODOFILOX] | 168.46 ± 28.98 | 3.38 | – | – | –
O=C(O)C(O)C(O)C(=O)O.OCc1cccnc1 (centres unmarked) [NICOTINYL ALCOHOL TARTRATE] | 262.12 ± 57.89 | 7.61 | – | – | –
CN1CCN(C(c2ccccc2)c2ccc(Cl)cc2)CC1 (centres unmarked) [CHLORCYCLIZINE HYDROCHLORIDE] | 238.84 ± 35.23 | 6.56 | – | – | –
CN(C)/N=N/c1[nH]cnc1C(N)=O [DACARBAZINE] | 177.63 ± 45.35 | 3.79 | – | – | –
CC(C)COCC(CN(Cc1ccccc1)c1ccccc1)N1CCCC1 (centres unmarked) [BEPRIDIL HYDROCHLORIDE] | 178.65 ± 3.48 | 3.84 | – | – | –
CC(=O)c1ccc2c(c1)N(CCCN(C)C)c1ccccc1S2 [ACEPROMAZINE MALEATE] | 239.1 ± 38.37 | 6.57 | – | – | –
Nc1nc2c(ncn2COCCO)c(=O)[nH]1 [ACYCLOVIR] | 258.33 ± 14.16 | 7.44 | – | – | –
CC(=O)OCC(=O)[C@@]1(O)CC[C@H]2[C@@H]3CCC4=CC(=O)CC[C@]4(C)[C@H]3C(=O)C[C@@]21C [CORTISONE ACETATE] | 205.92 ± 12.32 | 5.07 | – | – | –
ANTIMYCIN A | 180.04 ± 1.89 | 3.90 | – | – | –
COCCOC(=O)C1=C(C)NC(C)=C(C(=O)OC(C)C)C1c1cccc([N+](=O)[O-])c1 (centres unmarked) [NIMODIPINE] | 292.38 ± 56.17 | 8.97 | – | – | –

Compound | Average of % viability [1] [%] | Z score [1] | Average of % viability [2] [%] | Effect on viability in hypotonic stress screen (in words) [1] | cutting efficiency [3] [%]
CO[C@H]1C[C@H](O[C@@H]2/C(C)=C/C[C@@H]3C[C@@H](C[C@]4(CC[C@H](C)[C@@H](C5CCCCC5)O4)O3)OC(=O)[C@@H]3C=C(C)/C(=N/O)[C@H]4OC/C(=C\C=C\[C@@H]2C)[C@]43O)O[C@@H](C)[C@@H]1O [SELAMECTIN] | 172.91 ± 25.29 | 3.58 | – | – | –
O=C(O)CCCC[C@@H]1SC[C@@H]2NC(=O)N[C@@H]21 [BIOTIN] | 315.95 ± 51.89 | 10.04 | – | – | –
CCN(CC)CCOc1ccc2c(c1)C(=O)c1cc(OCCN(CC)CC)ccc1-2 [TILORONE] | 172.53 ± 15.79 | 3.56 | – | – | –
COC(=O)[C@H](c1ccccc1Cl)N1CCc2sccc2C1 [CLOPIDOGREL SULFATE] | 194.84 ± 50.3 | 4.57 | – | – | –
CC(=O)O[C@H]1CC[C@@]2(C)[C@H](CC[C@@H]3[C@@H]2CC[C@]2(C)[C@@H](C4=CC(=O)OC4)[C@@H](OC(C)=O)C[C@]32O)C1 [GITOXIGENIN DIACETATE] | 177.20 ± 1.17 | 3.77 | – | – | –
O=C(CCCN1CCC(O)(c2ccc(Cl)cc2)CC1)c1ccc(F)cc1 [HALOPERIDOL] | 197.30 ± 19.03 | 4.68 | – | – | –
C=CC1=C(C(=O)O)N2C(=O)[C@@H](NC(=O)/C(=N\O)c3csc(N)n3)[C@H]2SC1 | 185.70 ± 45.76 | 4.16 | – | – | –
CCCCc1oc2ccccc2c1C(=O)c1cc(I)c(OCCN(CC)CC)c(I)c1 [AMIODARONE HYDROCHLORIDE] | – | 3.37 | – | – | –
CN(C)c1nc(N(C)C)nc(N(C)C)n1 [ALTRETAMINE] | 188.22 ± 2.87 | 4.27 | – | – | –
Nc1ccc(C(=O)NCC(=O)O)cc1 [AMINOHIPPURIC ACID] | 207.49 ± 7.09 | 5.14 | – | – | –
O=C(O)c1cc(-c2ccccc2)nc2ccccc12 [CINCHOPHEN] | 168.44 ± 44.63 | 3.38 | – | – | –
BENZALKONIUM CHLORIDE | 194.64 ± 23.10 | 4.56 | – | – | –
CCCCCCCCCCCCCCCC(=O)OC/C=C(C)/C=C/C=C(C)/C=C/C1=C(C)CCCC1(C)C [RETINYL PALMITATE] | 236.79 ± 46.63 | 6.46 | – | – | –
COc1cccc2c1C(=O)c1c(O)c3c(c(O)c1C2=O)C[C@@](O)(C(=O)CO)C[C@@H]3O[C@H]1C[C@H](N)[C@H](O)[C@H](C)O1 [DOXORUBICIN] | 207.98 ± 34.29 | 5.16 | – | – | –
CCOC(=O)C1=C(C)NC(C)=C(C(=O)OC)C1c1cccc([N+](=O)[O-])c1 (centres unmarked) [NITRENDIPINE] | 275.48 ± 52.16 | 8.21 | – | – | –
CC(C)(C)c1ccc(C(O)CCCN2CCC(C(O)(c3ccccc3)c3ccccc3)CC2)cc1 (centres unmarked) [TERFENADINE] | 211.28 ± 22.46 | 5.31 | – | – | –
NC(=O)NO [HYDROXYUREA] | 187.65 ± 49.61 | 4.25 | – | – | –
C[C@@H]1CC[C@@]2(OC1)O[C@H]1[C@@H](O)[C@H]3[C@@H]4CC[C@H]5C[C@@H](O[C@@H]6O[C@H](CO)[C@H](O[C@@H]7O[C@H](CO)[C@@H](O)[C@H](O[C@@H]8OC[C@@H](O)[C@H](O)[C@H]8O)[C@H]7O[C@@H]7O[C@H](CO)[C@H](O)[C@H](O[C@@H]8O[C@H](CO)[C@@H](O)[C@H](O)[C@H]8O)[C@H]7O)[C@H](O)[C@H]6O)[C@H](O)C[C@]5(C)[C@H]4CC[C@]3(C)[C@H]1[C@@H]2C [digitonin] | – | lowest Z score | – | dose-responsive toxicity | –
C[C@]12CC[C@@H]3c4ccc(OS(=O)(=O)O)cc4CC[C@H]3[C@@H]1CCC2=O [ESTROPIPATE] | 208.65 ± 30.77 | 5.19 | – | – | –
CC(C)NCC(O)COc1ccc(CC(N)=O)cc1 (centres unmarked) [ATENOLOL] | – | 3.51 | – | – | –
CN1C(=O)CC[C@H]1c1cccnc1 [COTININE] | 188.79 ± 56.0 | 4.30 | – | – | –

— patent US11661583B2, “Drug discovery platform for Duchenne cardiomyopathy” (University of Washington, priority 2015, dated 2023)
